According to article PMC5063506, “A Novel Class of Small Molecule Agonists with Preference for Human over Mouse TLR4 Activation” (PLoS ONE, 2016):
≈ marks a conversion by molar mass, not a printed value.

Columns and labels:
hTLR4/MD2 KIKO mice = test: In vivo serum cytokines in hTLR4/MD2 KIKO mice; parameters: species or system mouse; details: 50 μg IP, serum at 2 h and 6 h
Excerpt: The humanized TLR4/MD-2 mice, described in detail in [15], express human TLR4 and human MD-2 from bacterial artificial chromosome transgenes that were bred to the mouse TLR4/MD-2 double-knockout (DKO) on a C57BL/6J background. Because the hMD-2 BAC transgene is integrated on the Y-chromosome, only male mice were used in the study. Generally, hMD-2 BAC+ males are bred to hTLR4 BAC+ females (both on DKO background) and male pups were screened for the presence of hTLR4 BAC. Double positives served as the fully humanized TLR4/MD-2 mice and hTLR4 BAC negative mice served as functional KO. Wild-type C57BL/6 mice were bred in parallel. All breeding was performed in an SPF facility at the University of Washington and all protocols were approved by the University of Washington IACUC. For in vivo cytokines, mice were injected intraperitoneally with 50 μg of either AZ618 or MPL in 0.2 ml PBS. Mice were bled from the retroorbital sinus 2 h after injection and terminal cardiocentesis was performed at 6 h for the second blood sample. Serum samples were analyzed via MILLIPLEX kits (EMD Millipore).
C57BL/6 mice (6–12 per group) were immunized IP with 50 μg MPL or AZ618 and then were bled at 2 h via retro-orbital route and at 6 h via cardiac puncture. Serum was analyzed by multiplex Millipore kits for cytokine content. […]

rat PBMCs = test: Cytokine induction in rat PBMCs (rat MILLIPLEX); assay type: cell-based, Sprague-Dawley rat; details: 1 and 0.2 μg/ml, 24 h
Protocol: Splenocytes were isolated from naïve BALB/c mice by dissociating spleens with a GentleMACS (Miltenyi) instrument, then filtration through […] screens. For other species, blood was obtained through venipuncture or cardiac puncture into heparinized tubes, then diluted 1:1 with PBS or HBSS and layered onto Ficoll-Histopaque (GE Healthcare) for blood from healthy human volunteers and cynomolgus macaques, Lympholyte-Mammal (Cedarlane Labs) for New Zealand white rabbits, Sprague-Dawley rats, Hartley guinea pigs, cotton rats, and ferrets, followed by standard density centrifugation techniques. […]
PBMCs (human, cynomolgus macaque, guinea pig, ferret, rabbit, rat, and cotton rat) or splenocytes (mouse) were seeded onto 96-well flat bottom plates at 5 x 10^5 cells/well and stimulated with TLR4 agonists at 1 and 0.2 μg/ml for 24 h at 37°C. […] For human, cyno, mouse, and rat, cell-free SNs were analyzed via human, NHP, mouse, and rat MILLIPLEX kits. For GP, ferret, rabbit, and CR, cells were lysed by Millipore lysing buffer and snap frozen at -70 C until ready for analysis by Affymetrix QuantiGene 2.0 Plex kits. […] Signal was detected using a Bioplex 200 instrument (BioRad). […]
Fig 8 Secreted cytokine profile of rat PBMCs stimulated by AZ618. […] SNs were analyzed via rat MILLIPLEX kits. Data are expressed as the means of 3 rats at the 1 μg/ml dose of TLR4 agonist and are representative of 2 studies. […]

[1] = Solubility by dissolution of solid samples in buffer; assay type: physicochemical; details: aqueous buffer, thermodynamic from solid; solid samples in buffer at pH 7.4
Excerpt: (§1) Fig 2 Optimization stages of Ugi products as TLR4 agonists. *Human TLR-4 NFκB SEAP reporter assays; protocol as described in Methods. Data are reported as pEC50, or negative log of the EC50 values. **Clint rh / hm represents intrinsic clearance in presence of rat hepatocytes (μL/min/10^6 cells) and human microsomes (μL/min/mg protein). […] Thus a drug molecule with LogD >4 might be considered to be very lipophilic and therefore more likely to suffer from rapid metabolic turnover, poor solubility and receptor promiscuity; whereas a LogD range of 1–3 is more likely to be associated with optimal physicochemical and drug-like properties. ^††Solubility was measured by dissolution of solid samples in buffer at pH 7.4.

cytochrome P450 enzymes = test: Inhibition of cytochrome P450 enzymes (unpublished data); assay type: in vitro ADME; details: compared with earlier-stage, more lipophilic Ugi compounds
[2] = Intrinsic clearance in presence of human microsomes; assay type: in vitro ADME; details: read-out: Clint hm (intrinsic clearance, human microsomes)
Excerpt: as §1

[3] = Intrinsic clearance in presence of rat hepatocytes; assay type: in vitro ADME; details: read-out: Clint rh (intrinsic clearance, rat hepatocytes)
Excerpt: as §1

Row | solubility [1] | inhibition of one or more cytochrome P450 enzymes (cytochrome P450 enzymes) | microsomal CLint [2] | hepatocyte CLint [3] | Structure (SMILES) | serum cytokine induction in hTLR4/MD2 KIKO mice (hTLR4/MD2 KIKO mice) | response in rat PBMCs (cytokine secretion) (rat PBMCs)
1 | – | – | – | – | Cc1cc(C)cc(N(C(=O)c2cc(-c3ccccc3)n(-c3ccccc3)n2)C(C(=O)NC2CCCC2)c2ccc(CC(=O)O)cc2)c1 (stereo not drawn) [AZ618, 2-(4-(2-(cyclopentylamino)-1-(N-(3,5-dimethylphenyl)-1,5-diphenyl-1H-pyrazole-3-carboxamido)-2-oxoethyl)phenyl)acetic acid] | induced a very similar pattern of cytokines | comparable to that induced by MPL
2 | 129 µM (≈ 82.4 µg/mL) | abolished | < 3 µL/min/mg | < 5 µL/min/1e6 cells | O=C(O)Cc1ccc(C(C(=O)NC2CCCC2)N(C(=O)c2cc(-c3ccccc3)n(-c3ccccc3)n2)c2ccc3c(c2)CCC3)cc1 (stereo not drawn) [AZ617] | – | –
